Measured values taken from patent US6544983B2, “Diazepinoindoles for the treatment of chronic obstructive pulmonary disease” (Pfizer Inc, priority 2000, dated 2003).
Like-named read-outs stand apart in the source and are kept apart here.

Tests used:
[1] = single dose of 20 mg; Murdoch et al. 1998; cited from earlier work
[2] = system: LPS-induced lung neutrophilia; assay: Neutrophilia induced by LPS aerosol in the Wistar rat; assay type: in vivo; conditions: Wistar rats, oral
Method: (§1) The model retained to assess the usefulness of the compounds of the invention for the treatment of COPD was a neutrophilia model. Neutrophilia was induced by exposure of rats or mice to a lipopolysaccharide (LPS) aerosol.
The animals were treated with compound 1 or cilomilast when conscious, that was by the oral route.
One hour after the treatment, the rats were placed in a plexiglass box and were given a 200 μg/ml aerosol of LPS (Escherichia coli, serotype O55:B5) for 1 hour. Control rats were not given the LPS aerosol. This control is called ‘sham’ in FIGS. 1 and 2.
Two hours after the exposure to the LPS, the animals were then anaesthetised by intraperitoneal injection of 6% sodium pentobarbital at a rate of 1 ml/kg. A tracheotomy was carried out and a tracheal cannula was inserted.
Using a 5-ml syringe, 3 consecutive washings were carried out with a 5-ml volume of a […] NaCl+EDTA solution (37° C.), in order to recover the cell population present in the lumen of the airways. The fluid which had thus been withdrawn was stored at +4° C. on ice.

[3] = system: LPS-induced TNFα release in whole blood; assay: Inhibition of in vitro LPS-induced TNFα production in whole blood of COPD patients; assay type: cell-based; conditions: Homo sapiens; whole blood of COPD patients (n=7), LPS 50 μg/ml, 22-24 h at 37° C., ELISA
Description: The aim of this study was to compare the in vitro activities of three selective PDE4 inhibitors (compound 1, rolipram which is 4-[3-(cyclopentyloxy)-4-methoxy-phenyl]-2-pyrrolidinone, and cilomilast) at reducing lipopolysaccharide (LPS)-induced TNFα release in whole blood of COPD patients. Thirteen COPD patients, diagnosed according to the ATS guidelines^iv, were included in this study to determine the concentration-effect of LPS on TNF^α production (n=6) and the IC50 values of compound 1, rolipram and cilomilast (n=7).
Blood (15 ml/patient) was collected in heparin tubes and distributed in 96-well microplates (250 μl/well).
After a 30-min incubation at 37° C., 25 μl of increasing concentrations of the compound to test or vehicle were added in different wells. The microplates were incubated at 37° C. for 30 min, and then 25 μl of LPS (E. coli) at 50 μg/ml (stimulated wells) or 25 μl of sterile saline (unstimulated wells) were added. The microplates were incubated 22-24 h at 37° C.
125 μl of the supernatant plasma were transferred gently in sterile 96-well microplates and stored at −80° C. until TNFα assay. The TNFα production was then measured by an ELISA assay.

[4] = in humans; Torphy et al. 1999; cited from earlier work
[5] = Half-life in humans after single oral doses to healthy volunteers; conditions: human, in vivo, single oral doses 1 to 25 mg
Description: Such values indicate that compound 1 may be administered once daily.

[6] = system: LPS-induced lung neutrophilia; assay: Neutrophilia induced by LPS aerosol in the C57 bl/6 mouse; assay type: in vivo; conditions: oral route, 1 h before LPS aerosol 100 μg/ml; bronchoalveolar washings 24 h after exposure
Method: as §1
The animals were treated with compound 1 when conscious, that was by the oral route.
One hour after treatment, the mice were placed in a plexiglass box (at most 25 mice to a box) and were given a 100 μg/ml aerosol of LPS (Escherichia coli, serotype O55:B5) for 1 hour. Control mice were not given the LPS aerosol.
Twenty-four hours after the exposure to the LPS, the animals were then anaesthetised by an intraperitoneal injection of 0.6% sodium pentobarbital at a rate of 15 ml/kg. A tracheotomy was carried out and a tracheal cannula was inserted. […]
The cells contained in the bronchoalveolar washing fluid were counted using a Coulter particle counter. […]
The arithmetic mean and the standard deviation (SD) of the number of neutrophils in the bronchoalveolar washing fluids were calculated for each treatment group. The percentage inhibition was calculated in the following manner: [formula] […]
The 90% confidence interval for the percentage inhibition was to be calculated by the “Delta method” or “Fieller method” ^i, ii & iii (Armitage & al, 1998; Feuerstein & al, 1997; Hubert & al, 1988) if appropriate.

Row | IC50 [3] [nM] | Compound | side effects [1] | percentage of inhibition of the LPS-induced lung neutrophilia ([2]; 30 mg/kg) [%] | elimination half-life [4] | half-life ([5]; read-out: mean terminal half-life values, range over doses) [min] | half-life ([5]; read-out: terminal half-life, mean over all doses (converted)) [min] | inhibition of the LPS-induced lung neutrophilia in mice [6] | efficiency relative to cilomilast at the same dose ([2]; 10 mg/kg) | percentage of inhibition of the LPS-induced lung neutrophilia ([2]; 10 mg/kg) [%]
1 | > 10000 | COc1ccc([C@]2(C#N)CC[C@@H](C(=O)O)CC2)cc1OC1CCCC1 [cilomilast, cis-4-cyano-4-[3-(cyclopentyloxy)-4-methoxyphenyl]cyclohexane carboxylic acid] | relevant side effects such as nausea and vomiting occurred | 74 | approximately 8 hours | – | – | – | – | –
2 | 2800 ± 900 | COc1ccc(C2CNC(=O)C2)cc1OC1CCCC1 (stereo not drawn) [rolipram, 4-[3-(cyclopentyloxy)-4-methoxy-phenyl]-2-pyrrolidinone] | – | – | – | – | – | – | – | –

Row | Compound | IC50 [3] [nM] | side effects [1] | percentage of inhibition of the LPS-induced lung neutrophilia ([2]; 30 mg/kg) [%] | elimination half-life [4] | half-life ([5]; read-out: mean terminal half-life values, range over doses) [min] | half-life ([5]; read-out: terminal half-life, mean over all doses (converted)) [min] | inhibition of the LPS-induced lung neutrophilia in mice [6] | efficiency relative to cilomilast at the same dose ([2]; 10 mg/kg) | percentage of inhibition of the LPS-induced lung neutrophilia ([2]; 10 mg/kg) [%]
3 | Nc1cc2c3c(c1)C(c1ccccc1)=N[C@@H](NC(=O)c1cccnc1)C(=O)N3CC2 [compound 1, (3R)N-(9-amino-4-oxo-1-phenyl-3,4,6,7-tetrahydro-[1,4]diazepino[6,7,1-hi]indol-3-yl)-nicotinamide] | 1300 ± 700 | – | 80 | – | 834 to 1030 | 924 | strongly inhibited | twice more efficient than cilomilast | 74
